Experimental data taken from patent US20260364182A1, “PROTEOLYSIS-TARGETING CHIMERAS AGAINST THE PAPAIN-LIKE PROTEASE OF SARS-COV-2” (Tocris Cookson Limited, priority 2022, published 2026).

How the values were obtained:
SARS-CoV-2 PLpro = target: T1, SARS-CoV-2 PLpro (Severe acute respiratory syndrome coronavirus 2, UniProt P0DTD1); assay: IC50 inhibitory assay, fluorogenic substrate cleavage by PLpro; assay type: biochemical; details: for IC50: SARS-CoV-2 PLpro 0.1 μM, substrate 10 μM, pH 8.1, 37 °C, 10 min preincubation; for inhibitory potency of PROTAC and parent ligand in binary IC50 experiment (in words): in vitro inhibitory assay, 20 mM HEPES, pH 8.1, 1% DMSO, PROTAC compared with parent ligand
T1 construct: The papain-like protease domain (PLpro) of SARS-CoV-2 (SCoV2)
Procedure: The inhibitory activities of compounds against SARS-CoV-2 PLpro were determined in a reaction buffer containing 20 mM HEPES, 40 mM NaCl, 5% glycerol, 2 mM DTT (freshly added before the measurements), pH 8.1, at 37 °C. A fluorescent substrate of SARS-CoV-2 PLpro (Z-Arg-leu-Arg-Gly-Gly-[…]AMC; Biosyntan, Berlin) was used, and the fluorescence signal of the cleaved substrate was monitored using a Tecan Spark® fluorescence spectrophotometer at an […] wavelength of 460/360 nm. SARS-CoV-2 PLpro (10 μL per well) was pipetted into a 96-well plate together with reaction buffer reaction buffer (50 μL per well, final enzyme concentration: 0.1 μM). Compounds (10 μL per well) were added at varying concentrations, and plates incubated at 37 °C for 10 mins. Finally, the reaction was initiated by adding 30 μL of the substrate (final concentration: 10 μM) dissolved in the reaction buffer.
FIG. 1: PROTAC and parent ligand for SARS-CoV-2 PLpro in a binary IC50 experiment. C10778A PROTAC (top left), comprising a SARS-CoV-2 PLpro targeting ligand C10778B (bottom left) connected to thalidomide via a C3 alkyl linker. IC50 values have been determined in an in vitro inhibitory binding assay whereby the fluorescence signal resulting from cleavage of a fluorogenic substrate by PLpro is measured. Inhibition of PLpro is associated with reduced cleavage of the fluorogenic substrate. […] Assay conditions: experiments were performed in 20 mM HEPES buffer containing 40 mM NaCl 5% glycerol, 2 mM DTT at pH 8.1. A fluorogenic substrate for PLpro (Z-Arg-leu-Arg-Gly-Gly-AMC) was used to determine the inhibition rate of compounds. Final DMSO concentration in each reaction was 1%. Measurements were performed in triplicate.

SARS-CoV-2 = assay: Antiviral assay in infected Vero E6 cells (ATP quantification, Cell Titer Glo); details: Vero E6 cells, MOI 0.05, 72 h; for inhibition at 10 µM / inhibition at 50 µM: Severe acute respiratory syndrome coronavirus 2, Vero C1008, 72 h; for inhibition at 10 µM: read-out: Antiviral Activity, 10 uM (cell viability assay), 10 uM; for inhibition at 50 µM: read-out: Antiviral Activity, 50 uM (cell viability assay), 50 uM; for Antiviral Activity, 10 uM (cell viability assay): 4320 min
Procedure: Vero E6 cells (2×10^4/well) were seeded in 96 well plates one day before the experiment. Pre-treatment, the medium was removed and compounds were added at concentrations varying from 0.1-100 μM. After 24 h incubation, the medium was removed and cells were infected with MOI 0.05 SARS-CoV-2 SARS-CoV2/ZG/297-20. After 1 h infection, the viruses were removed and the same concentration of compounds were added back into the cells. After 72 h incubation at 37 °C, EC50 measurements were made using ATP quantification (Cell Titer Glo).

| SMILES | IC50 (SARS-CoV-2 PLpro) | inhibition at 10 µM (SARS-CoV-2) | inhibition at 50 µM (SARS-CoV-2) | Antiviral Activity, 10 uM (cell viability assay) (SARS-CoV-2) | inhibitory potency of PROTAC and parent ligand in binary IC50 experiment (in words) (SARS-CoV-2 PLpro) | Antiviral Activity, 50 uM (cell viability assay) (SARS-CoV-2; 50 uM) |
| --- | --- | --- | --- | --- | --- | --- |
| Cc1ccc(NC(=O)CCNc2cccc3c2C(=O)N(C2CCC(=O)NC2=O)C3=O)cc1C(=O)N[C@H](C)c1cccc2ccccc12 (stereo in doubt) [TS140] | > 25 µM | < 0% | < 0% | – | – | – |
| Cc1ccc(NC(=O)CCOCCNc2ccc3c4c(cccc24)C(=O)N(C2CCC(=O)NC2=O)C3=O)cc1C(=O)N[C@H](C)c1cccc2ccccc12 (stereo in doubt) [TS181] | – | – | < 0% | E (<0% = E) | – | – |
| Cc1ccc(NC(=O)CCCCCOc2cc(-c3scnc3C)ccc2CNC(=O)[C@@H]2C[C@@H](O)CN2C(=O)[C@@H](NC(=O)C2(F)CC2)C(C)(C)C)cc1C(=O)N[C@H](C)c1cccc2ccccc12 (stereo in doubt) [TS291] | > 25 µM | < 0% | < 25% | – | – | – |
| Cc1ccc(NC2CCNCC2)cc1C(=O)N[C@H](C)c1cccc(-c2ccc(CNC(=O)CCCOc3cccc4c3C(=O)N(C3CCC(=O)NC3=O)C4=O)s2)c1 (stereo partly drawn) [Compound C10778A, N-((1R)-1-(3-(5-((4-((2-(2,6-Dioxopiperidin-3-yl)-1,3-dioxoisoindolin-4-yl)oxy)butanamido)methyl)thiophen-2-yl)phenyl)ethyl)-2-methyl-5-(piperidin-4-ylamino)benzamide] | < 1 µM | – | – | – | retains nM activity for PLpro, similar to the parent compound | – |
| CC(=O)NCc1ccc(-c2cccc([C@@H](C)NC(=O)c3cc(NC4CCNCC4)ccc3C)c2)s1 [Compound C10778B, (R)—N-(1-(3-(5-(Acetamidomethyl)thiophen-2-yl)phenyl)ethyl)-2-methyl-5-(piperidin-4-ylamino)benzamide, reference compound] | – | – | – | – | nM activity for PLpro | – |
| Cc1ccc(NC2CCNCC2)cc1C(=O)N[C@H](C)c1cccc(-c2ccc(CNC(=O)CCCCCOc3cccc4c3C(=O)N(C3CCC(=O)NC3=O)C4=O)s2)c1 (stereo partly drawn) [Compound C10778C] | < 10 µM | < 0% | < 0% | – | – | – |
| Cc1ccc(NC2CCNCC2)cc1C(=O)N[C@H](C)c1cccc(-c2ccc(CNC(=O)CCCCCNc3ccc4c(c3)C(=O)N(C3CCC(=O)NC3=O)C4=O)s2)c1 (stereo partly drawn) [Compound C10778D] | < 1 µM | < 0% | < 0% | – | – | – |
| Cc1ccc(NC2CCNCC2)cc1C(=O)N[C@H](C)c1cccc(-c2ccc(CNC(=O)CCCNc3ccc4c(c3)C(=O)N(C3CCC(=O)NC3=O)C4=O)s2)c1 (stereo partly drawn) [Compound C10778E] | < 1 µM | < 0% | < 0% | – | – | – |
| Cc1ccc(NC2CCNCC2)cc1C(=O)N[C@H](C)c1cccc(-c2ccc(CNC(=O)CCCCNC(=O)COc3ccc(C4CCC(=O)NC4=O)cc3)s2)c1 (stereo partly drawn) [Compound C10778F] | < 10 µM | < 25% | < 25% | – | – | – |
| Cc1ccc(NC2CCNCC2)cc1C(=O)N[C@H](C)c1cccc(-c2ccc(CNC(=O)CCCCCNC(=O)COc3ccc(C4CCC(=O)NC4=O)cc3)s2)c1 (stereo partly drawn) [Compound C10778G] | < 1 µM | < 25% | < 25% | – | – | – |
| Cc1ccc(NC(=O)CCOCCNc2ccc3c4c(cccc24)C(=O)N(C2CCC(=O)NC2=O)C3=O)cc1C(=O)N[C@H](C)c1cccc2ccccc12 (stereo partly drawn) [Compound C10778H] | > 25 µM | – | – | D (<25% = D) | – | E (<0% = E) |
| Cc1ccc(NC2CCNCC2)cc1C(=O)N[C@H](C)c1cccc(-c2ccc(CNC(=O)CCCNc3cccc4c3C(=O)N(C3CCC(=O)NC3=O)C4=O)s2)c1 (stereo partly drawn) [Compound C10778I] | < 1 µM | < 0% | < 0% | – | – | – |
| Cc1ccc(NC(=O)CCCCCNc2cccc3c2CN(C2CCC(=O)NC2=O)C3=O)cc1C(=O)N[C@H](C)c1cccc2ccccc12 (stereo partly drawn) [TS121] | 10 to 25 µM | < 0% | < 0% | – | – | – |
| Cc1ccc(NC(=O)CCCCNc2cccc3c2CN(C2CCC(=O)NC2=O)C3=O)cc1C(=O)N[C@H](C)c1cccc2ccccc12 (stereo partly drawn) [TS124] | < 10 µM | < 0% | < 25% | – | – | – |
| Cc1ccc(NC(=O)CCOCCOCCOCCNc2cccc3c2C(=O)N(C2CCC(=O)NC2=O)C3=O)cc1C(=O)N[C@H](C)c1cccc2ccccc12 (stereo partly drawn) [TS128] | < 10 µM | < 0% | < 0% | – | – | – |
| Cc1ccc(NC(=O)CCOCCOCCOCCOCCNc2cccc3c2C(=O)N(C2CCC(=O)NC2=O)C3=O)cc1C(=O)N[C@H](C)c1cccc2ccccc12 (stereo partly drawn) [TS129] | 10 to 25 µM | < 0% | < 0% | – | – | – |
| Cc1ccc(NC(=O)CCOCCOCCNc2cccc3c2C(=O)N(C2CCC(=O)NC2=O)C3=O)cc1C(=O)N[C@H](C)c1cccc2ccccc12 (stereo partly drawn) [TS139] | < 10 µM | < 0% | < 25% | – | – | – |
| Cc1ccc(NC(=O)CCOCCNc2cccc3c2C(=O)N(C2CCC(=O)NC2=O)C3=O)cc1C(=O)N[C@H](C)c1cccc2ccccc12 (stereo partly drawn) [TS144] | 10 to 25 µM | < 0% | < 0% | – | – | – |
| Cc1ccc(NC(=O)CCCNc2cccc3c2C(=O)N(C2CCC(=O)NC2=O)C3=O)cc1C(=O)N[C@H](C)c1cccc2ccccc12 (stereo partly drawn) [TS145] | < 10 µM | – | – | – | – | – |
| Cc1ccc(NC(=O)CCOCCOCCNc2ccc3c4c(cccc24)C(=O)N(C2CCC(=O)NC2=O)C3=O)cc1C(=O)N[C@H](C)c1cccc2ccccc12 (stereo partly drawn) [TS170] | < 10 µM | < 0% | < 25% | – | – | – |
| Cc1ccc(NC(=O)CCOCCOCCOCCNc2ccc3c4c(cccc24)C(=O)N(C2CCC(=O)NC2=O)C3=O)cc1C(=O)N[C@H](C)c1cccc2ccccc12 (stereo partly drawn) [TS182] | < 10 µM | < 0% | < 25% | – | – | – |
| Cc1ccc(NC(=O)CCCCOc2cc3c4c(cccc4c2)C(=O)N(C2CCC(=O)NC2=O)C3=O)cc1C(=O)N[C@H](C)c1cccc2ccccc12 (stereo partly drawn) [TS251] | 10 to 25 µM | < 0% | < 25% | – | – | – |
| Cc1ccc(NC(=O)CCCCNc2cccc3c2C(=O)N(C2CCC(=O)NC2=O)C3=O)cc1C(=O)N[C@H](C)c1cccc2ccccc12 (stereo partly drawn) [TS267] | < 10 µM | < 0% | < 0% | – | – | – |
| Cc1ccc(NC(=O)CCCCOc2cc(-c3scnc3C)ccc2CNC(=O)[C@@H]2C[C@@H](O)CN2C(=O)[C@@H](NC(=O)C2(F)CC2)C(C)(C)C)cc1C(=O)N[C@H](C)c1cccc2ccccc12 [TS290] | > 25 µM | < 0% | < 25% | – | – | – |
| Cc1ccc(NC(=O)CCCCC(=O)N[C@H](C(=O)N2C[C@H](O)C[C@H]2C(=O)NCc2ccc(-c3scnc3C)cc2)C(C)(C)C)cc1C(=O)N[C@H](C)c1cccc2ccccc12 [TS309] | 10 to 25 µM | < 0% | < 0% | – | – | – |
| Cc1ccc(NC(=O)CCCCCCC(=O)N[C@H](C(=O)N2C[C@H](O)C[C@H]2C(=O)NCc2ccc(-c3scnc3C)cc2)C(C)(C)C)cc1C(=O)N[C@H](C)c1cccc2ccccc12 [TS310] | > 25 µM | < 0% | < 0% | – | – | – |
| Cc1ccc(NC(=O)CCCCCCCCC(=O)N[C@H](C(=O)N2C[C@H](O)C[C@H]2C(=O)NCc2ccc(-c3scnc3C)cc2)C(C)(C)C)cc1C(=O)N[C@H](C)c1cccc2ccccc12 [TS311] | > 25 µM | < 0% | < 0% | – | – | – |
| C[C@H](c1cccc2ccccc12)N1CCC(C(=O)NCc2cc(F)cc(NC(=O)N3CCN(CCOCCOCCOc4cccc5c4C(=O)N(C4CCC(=O)NC4=O)C5=O)CC3)c2)CC1 (stereo partly drawn) [TS420] | < 10 µM | < 25% | < 0% | – | – | – |
| C[C@H](c1cccc2ccccc12)N1CCC(C(=O)NCc2cc(F)cc(NC(=O)N3CCN(CCOCCOCCOCCOc4cccc5c4C(=O)N(C4CCC(=O)NC4=O)C5=O)CC3)c2)CC1 (stereo partly drawn) [TS423] | < 10 µM | < 25% | < 0% | – | – | – |
| C[C@H](c1cccc2ccccc12)N1CCC(C(=O)NCc2cc(F)cc(NC(=O)N3CCN(CCOCCOc4cccc5c4C(=O)N(C4CCC(=O)NC4=O)C5=O)CC3)c2)CC1 (stereo partly drawn) [TS424] | < 10 µM | < 0% | < 0% | – | – | – |
